# Data from patent publication US9422240B2, “Partially saturated nitrogen-containing heterocyclic compound” (TAISHO PHARMACEUTICAL CO., LTD, priority 2012, dated 2016).
# Where a name gives a salt, the structure may show the parent alone.
# Target: human PHD2 (Homo sapiens (Human), UniProt Q9GZT9)
# Test: Test 2: human PHD2 inhibitory activity, fluorescence polarization assay of HIF-1α peptide proline hydroxylation
# Format: biochemical
# Details: read-out: Percent inhibition (% at 1 μM)
# Procedure: (1) Expression and Preparation of Human PHD2
# A registered sequence of human PHD2 (NM_022051) was introduced into pcDNA3.1/Hygro(+) vector (Invitrogen), and the sequence was verified. […] The suspension of disrupted cells was centrifuged at 4° C. and 100,000×g for 30 minutes and the supernatant was recovered as a cell lysate.
# (2) Measurement of Human PHD2 Inhibitory Activity
# The activity of human PHD2 enzyme was measured with a substrate which is a 19-residue partial peptide based on the sequence of HIF-1α; specifically, the hydroxylation of a proline residue in the peptide was measured by FP (Fluorescence Polarization).
# A test compound and the substrate solution were preliminarily added onto 384-well plates and reaction was initiated by adding a human PHD2 enzyme solution (40 ng/well). After 20-min incubation at 30° C., an EDTA-containing quench solution was added and the amount of the proline residues hydroxylated via binding to an added HIF—OH antibody solution was quantified by fluorescence polarization.
# The fluorescence polarization of each well was measured and the human PHD2 inhibitory activity of each test compound was calculated on the basis of the values for the test compound-free group.
# human PHD2, sequence (Q9GZT9 whole entry): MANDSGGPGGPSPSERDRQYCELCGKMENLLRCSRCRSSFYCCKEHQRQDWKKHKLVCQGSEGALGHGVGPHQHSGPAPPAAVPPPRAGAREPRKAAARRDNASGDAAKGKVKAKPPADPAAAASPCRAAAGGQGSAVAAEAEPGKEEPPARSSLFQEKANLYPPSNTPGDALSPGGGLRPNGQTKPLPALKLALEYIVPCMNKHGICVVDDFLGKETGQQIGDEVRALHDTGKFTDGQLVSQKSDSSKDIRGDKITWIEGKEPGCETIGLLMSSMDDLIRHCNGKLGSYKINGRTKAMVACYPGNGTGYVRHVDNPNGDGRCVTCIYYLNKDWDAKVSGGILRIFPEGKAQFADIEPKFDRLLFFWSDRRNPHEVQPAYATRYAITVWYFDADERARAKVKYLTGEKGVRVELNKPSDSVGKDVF
row,SMILES,inhibition at 1 µM
1,"O=C(O)CNC(=O)C1=C(O)CCN(Cc2ccc(C3=CCC(F)(F)CC3)cc2)C1=O [Ex. 1-467, N-({1-[4-(4,4-difluoro-1-cyclohexen-1-yl)benzyl]-4-hydroxy-2-oxo-1,2,5,6-tetrahydro-3-pyridinyl}carbonyl)glycine sodium salt]",95%
2,"Cc1cc(CN2CCC(O)=C(C(=O)NCC(=O)O)C2=O)ccc1OCC1CC1 [Ex. 1-468, N-({1-[4-(Cyclopropylmethoxy)-3-methylbenzyl]-4-hydroxy-2-oxo-1,2,5,6-tetrahydro-3-pyridinyl}carbonyl)glycine sodium salt]",85%
3,"Cc1ccc(-c2ccc(CN3CCC(O)=C(C(=O)NCC(=O)O)C3=O)cc2)cn1 [Ex. 2-4, N-({4-Hydroxy-1-[4-(6-methyl-3-pyridinyl)benzyl]-2-oxo-1,2,5,6-tetrahydro-3-pyridinyl}carbonyl)glycine sodium salt]",88%
4,"Cc1ccc(-c2ccc(CN3CCC(O)=C(C(=O)NCC(=O)O)C3=O)cc2)nc1 [Ex. 2-5, N-({4-Hydroxy-1-[4-(5-methyl-2-pyridinyl)benzyl]-2-oxo-1,2,5,6-tetrahydro-3-pyridinyl}carbonyl)glycine sodium salt]",97%
5,"C[C@H]1CC(O)=C(C(=O)NCC(=O)O)C(=O)N1Cc1ccc(OCC2CC2)cc1 [Ex. 6-2, N-({(6S)-1-[4-(Cyclopropylmethoxy)benzyl]-4-hydroxy-6-methyl-2-oxo-1,2,5,6-tetrahydro-3-pyridinyl}carbonyl)glycine sodium salt]",77%

# Same assay, conditions: test compound's concentration 1 μM; Test 2, fluorescence polarization assay; read-out: Percent inhibition (% at 1 μM)
row,SMILES,inhibition at 1 µM
1,O=C(O)CNC(=O)C1=C(O)CCN(Cc2ccc(C3CCCCC3)c(F)c2)C1=O [Ex. 1-453],94%
2,O=C(O)CNC(=O)C1=C(O)CCN(Cc2ccc(OCn3nnc4ccccc43)cc2)C1=O [Ex. 1-461],95%
3,Cn1nc2ccccc2c1COc1ccc(CN2CCC(O)=C(C(=O)NCC(=O)O)C2=O)cc1 [Ex. 1-463],99%
4,"O=C(O)CNC(=O)C1=C(O)CC(CO)(CCl)N(Cc2ccc(-c3ccccc3)cc2)C1=O (stereo not drawn) [Ex. 1-465, N-{[1-(4-Biphenylylmethyl)-6-(chloromethyl)-4-hydroxy-6-(hydroxymethyl)-2-oxo-1,2,5,6-tetrahydro-3-pyridinyl]carbonyl}glycine]",80%
5,CS(=O)(=O)c1ccc(-c2ccc(CN3CCC(O)=C(C(=O)NCC(=O)O)C3=O)cc2)cc1 [Ex. 2-31],93%
6,CN(C)C(=O)c1ccc(-c2ccc(CN3CCC(O)=C(C(=O)NCC(=O)O)C3=O)cc2)cc1 [Ex. 2-32],85%
7,O=C(O)CNC(=O)C1=C(O)C2(CCCCC2)N(Cc2ccc(-c3ccc(Cl)cc3)cc2)C1=O [Ex. 2-33],91%
8,O=C(O)CNC(=O)C1=C(O)CCN(Cc2ccc(-c3ccc(C(=O)O)cc3)cc2)C1=O [Ex. 2-34],97%
9,O=C(O)CNC(=O)C1=C(O)CCN(Cc2ccc(-c3ccc(C(F)(F)F)cc3)cn2)C1=O [Ex. 2-40],96%
10,"NS(=O)(=O)c1ccc(-c2ccc(CN3CCC(O)=C(C(=O)NCC(=O)O)C3=O)cc2)cc1 [Ex. 2-55, N-({4-Hydroxy-2-oxo-1-[(4′-sulfamoyl-4-biphenylyl)methyl]-1,2,5,6-tetrahydro-3-pyridinyl}carbonyl)glycine]",97%
11,CS(=O)(=O)c1ccc(-c2ccc(CN3CCC(O)=C(C(=O)NCC(=O)O)C3=O)cc2)cn1 [Ex. 2-56],92%
12,O=C(O)CNC(=O)C1=C(O)CCN(Cc2ccc(-c3ccc(S(=O)(=O)NCCO)cc3)cc2)C1=O [Ex. 2-57],94%
13,O=C(O)CNC(=O)C1=C(O)CCN(Cc2ccc(-c3ccc(C(=O)O)nc3)cc2)C1=O [Ex. 2-58],92%
14,"O=C(O)CNC(=O)C1=C(O)C2(CCCC2)N(Cc2ccc(-c3ccccc3)cc2)C1=O [Ex. 6-1, N-{[1-(4-Biphenylylmethyl)-4-hydroxy-2-oxo-1-azaspiro[4.4]non-3-en-3-yl]carbonyl}glycine]",91%
15,O=C(O)CNC(=O)C1=C(O)C2(CCC2)N(Cc2ccc(-c3ccccc3)cc2)C1=O [Ex. 6-3],96%
16,CC1C(O)=C(C(=O)NCCC(=O)O)C(=O)N1Cc1ccc(-c2ccccc2)cc1 (stereo not drawn) [Ex. 6-4],10%
17,CC1C(O)=C(C(=O)NCC(=O)O)C(=O)N1Cc1ccc(Oc2ccc(C(F)(F)F)cn2)cc1 (stereo not drawn) [Ex. 6-5],97%
18,CC1(C)C(O)=C(C(=O)NCC(=O)O)C(=O)N1Cc1ccc(Oc2ccc(C(F)(F)F)cn2)cc1 [Ex. 6-6],87%

# Next, values leading:
row,inhibition at 1 µM,SMILES
1,95%,O=C(O)CNC(=O)C1=C(O)CCN(C[C@H]2C[C@H](Oc3ccc(Cl)cc3)C2)C1=O [Ex. 1-454]
2,98%,O=C(O)CNC(=O)C1=C(O)CCN(C[C@H]2C[C@@H](Oc3ccc(Cl)cc3)C2)C1=O [Ex. 1-456]
3,94%,O=C(O)CNC(=O)C1=C(O)CCN(C[C@H]2C[C@H](OCc3ccc(Cl)cc3)C2)C1=O [Ex. 1-457]
4,89%,Cc1ccc(O[C@H]2C[C@H](CN3CCC(O)=C(C(=O)NCC(=O)O)C3=O)C2)cc1 [Ex. 1-458]
5,96%,O=C(O)CNC(=O)C1=C(O)CCN(C[C@H]2C[C@H](Oc3ccc(C(F)(F)F)cc3)C2)C1=O [Ex. 1-459]
6,92%,O=C(O)CNC(=O)C1=C(O)CCN(C[C@H]2C[C@H](Oc3cccc(Cl)c3)C2)C1=O [Ex. 1-460]
7,87%,Cc1cc(C)n(COc2ccc(CN3CCC(O)=C(C(=O)NCC(=O)O)C3=O)cc2)n1 [Ex. 1-462]
8,87%,O=C(O)CNC(=O)C1=C(O)CCN(C[C@H]2CC[C@H](OCc3ccc(Cl)cn3)CC2)C1=O [Ex. 1-464]
9,77%,"O=C(O)CNC(=O)C1=C(O)CCN(Cc2ccc(O)c(Cl)c2)C1=O [Ex. 1-466, N-{[1-(3-Chloro-4-hydroxybenzyl)-4-hydroxy-2-oxo-1,2,5,6-tetrahydro-3-pyridinyl]carbonyl}glycine disodium]"
10,98%,"COc1cnccc1-c1ccc(CN2CCC(O)=C(C(=O)NCC(=O)O)C2=O)cc1 [Ex. 2-2, N-({4-Hydroxy-1-[4-(3-methoxy-4-pyridinyl)benzyl]-2-oxo-1,2,5,6-tetrahydro-3-pyridinyl}carbonyl)glycine sodium salt]"
11,92%,"COc1ncccc1-c1ccc(CN2CCC(O)=C(C(=O)NCC(=O)O)C2=O)cc1 [Ex. 2-3, N-({4-Hydroxy-1-[4-(2-methoxy-3-pyridinyl)benzyl]-2-oxo-1,2,5,6-tetrahydro-3-pyridinyl}carbonyl)glycine sodium salt]"
12,96%,COc1ccc(-c2ccc(CN3CCC(O)=C(C(=O)NCC(=O)O)C3=O)cn2)cc1 [Ex. 2-35]
13,95%,O=C(O)CNC(=O)C1=C(O)CCN(Cc2ccc(-c3ccc(OC(F)(F)F)cc3)nc2)C1=O [Ex. 2-36]
14,91%,O=C(O)CNC(=O)C1=C(O)CCN(Cc2ccc(-c3ccc(F)cc3)nc2)C1=O [Ex. 2-37]
15,92%,COc1ccc(-c2ccc(CN3CCC(O)=C(C(=O)NCC(=O)O)C3=O)nc2)cc1 [Ex. 2-38]
16,93%,O=C(O)CNC(=O)C1=C(O)CCN(Cc2ccc(-c3ccc(OC(F)(F)F)cc3)cn2)C1=O [Ex. 2-39]
17,93%,COc1cc(-c2ccc(CN3CCC(O)=C(C(=O)NCC(=O)O)C3=O)cc2)ccn1 [Ex. 2-41]

row,inhibition at 1 µM,SMILES
1,96%,COc1ncc(-c2ccc(CN3CCC(O)=C(C(=O)NCC(=O)O)C3=O)cc2)s1 [Ex. 2-42]
2,95%,O=C(O)CNC(=O)C1=C(O)CCN(Cc2ccc(-c3cnc(O)s3)cc2)C1=O [Ex. 2-43]
3,96%,Cc1ccc(-c2ccc(CN3CCC(O)=C(C(=O)NCC(=O)O)C3=O)nc2)cc1 [Ex. 2-44]
4,95%,Cc1ccc(-c2ccc(CN3CCC(O)=C(C(=O)NCC(=O)O)C3=O)cn2)cc1 [Ex. 2-45]
5,93%,O=C(O)CNC(=O)C1=C(O)CCN(Cc2ccc(-c3ccc(Cl)cc3)nc2)C1=O [Ex. 2-46]
6,100%,Cc1ccc(-c2ccc(CN3CCC(O)=C(C(=O)NCC(=O)O)C3=O)cc2)s1 [Ex. 2-47]
7,103%,O=C(O)CNC(=O)C1=C(O)CCN(Cc2ccc(-c3ccc(C4CC4)cc3)nc2)C1=O [Ex. 2-48]
8,93%,O=C(O)CNC(=O)C1=C(O)CCN(Cc2ccc(-c3ccc(C4CC4)cc3)cc2)C1=O [Ex. 2-49]
9,99%,O=C(O)CNC(=O)C1=C(O)CCN(Cc2ccc(-c3ccc(C4CC4)cc3)cn2)C1=O [Ex. 2-50]
10,97%,COc1cccc(-c2ccc(CN3CCC(O)=C(C(=O)NCC(=O)O)C3=O)cn2)c1 [Ex. 2-51]
11,95%,COc1ccccc1-c1ccc(CN2CCC(O)=C(C(=O)NCC(=O)O)C2=O)cn1 [Ex. 2-52]
12,97%,COc1cncc(-c2ccc(CN3CCC(O)=C(C(=O)NCC(=O)O)C3=O)cc2)c1 [Ex. 2-53]
13,87%,COc1ccncc1-c1ccc(CN2CCC(O)=C(C(=O)NCC(=O)O)C2=O)cc1 [Ex. 2-54]
14,97%,Nc1ccc(-c2ccc(CN3CCC(O)=C(C(=O)NCC(=O)O)C3=O)cc2)cn1 [Ex. 2-59]
15,96%,O=C(O)CNC(=O)C1=C(O)CCN(Cc2ccc(-c3ccc(O)nc3)cc2)C1=O [Ex. 2-60]
16,92%,Nc1ncc(-c2ccc(CN3CCC(O)=C(C(=O)NCC(=O)O)C3=O)cc2)cn1 [Ex. 2-61]
17,72%,"O=C(O)CNC(=O)C1=C(O)CCN(Cc2ccc(O)cc2)C1=O [Ex. 4-3, N-{[4-Hydroxy-1-(4-hydroxybenzyl)-2-oxo-1,2,5,6-tetrahydro-3-pyridinyl]carbonyl}glycine]"
